Results reported in patent publication US5578643A, “Protective prostaglandins for use in conjunction with chemotherapeutic agents” (Loyola University of Chicago, priority 1994, dated 1996).

Experiments:
[1] = test system: hair follicles; experiment: Hair count / hair loss (alopecia) caused by chemotherapeutic agents, 5 daily treatments; type: in vivo, mice; details: 5 days
Method: Panel C is a representation of a photomicrograph of an animal given 40 μg of misoprostol, 2 hours before the 0.1 mg daily dose of doxorubicin given each day for 5 days.
(Data are the means of 6 mice (2 fields/mouse)±1 SEM.)
Amount of Hair Loss as a Measure of PG-induced Protection from Alopecia caused by Chemotherapeutic Agents.
One of the side effects of chemotherapy in cancer patients is hair loss or alopecia. Studies were conducted to measure a possible protective effect of PGs from alopecia caused by chemotherapeutic agents. […] The hairs on the rumps of mice (n=4/group) were plucked to induce a growth or anagen cycle within hair follicles which continues for about 18 days. […] Control groups (n=4) received no treatment or misoprostol alone.

[2] = test system: mice given doxorubicin (DOX); experiment: Survival of mice (percent survival over 15 days) after doxorubicin, with or without prior prostaglandin; details: n=16
Method: FIG. 1 is a graph illustrating percent survival of mice over 15 days as a function of the time interval (in hours) between the administration of misoprostol and the subsequent administration of doxorubicin. (The two curves represent duplicate experiments; 12 animals per experiment.)
FIG. 2 is a graph illustrating the percent survival of mice over 15 days following the administration of 0.5 mg of doxorubicin (open circles) and mice given 40 μg of misoprostol 2 hours before administration of 0.5 mg of doxorubicin (filled circles). (N=16 for each group).
FIG. 3 is a graph illustrating the percent survival of mice over 15 days following the administration of 0.75 mg of doxorubicin (open circles) and mice given 40 μg of misoprostol 2 hours before administration of 0.75 mg of doxorubicin (filled circles). (N=16 for each group).
Mortality of mice is a measure of PG-induced protection from death due to severe normal tissue injury inflicted by chemotherapy agents.
This assay was accomplished by injecting intraperitoneally (IP) separate groups of mice with a range of doses of chemotherapeutic agents. […] In some groups of mice, longevity was recorded by plotting the number of animals remaining alive (percent survival) versus time following the administration of the chemotherapeutic agent.
PG-induced protection from the toxic chemotherapeutic agents was measured by subcutaneous (SC) injection of the PG at various times prior to or after the IP administration of the chemotherapeutic agent. […] The time interval was varied from 15 minutes to 5 hours. The two curves represent two separate experiments with 20 mice in each experiment. The "0" time point is the percentage of mice that survived 15 days after administration of doxorubicin alone.

[3] = test system: hair medullary cells; experiment: Number of hair medullary cells four days after a single dose of chemotherapeutic agent, with or without misoprostol; type: in vivo, CF1 mice
Method: FIG. 13 is a representation of photographs of shafts of hair showing a single line of medullary cells in control mice (Panel A) and in mice 4 days after they were given a single dose of 0.3 mg of VP-16-213 (Panel B).
Number of Hair Medullary Cells as a Measure of Protection from Injury caused by Chemotherapeutic Agents.
The shafts of hair in CF1 mice contain usually a single line of about 50±1 medullary cells. These cells are very sensitive to cytotoxic agents (see Potten, C. S., Geng, L., and Taylor, P., Hair Medullary Cell Counts: a Simple and Sensitive Indicator of Radiation Exposure. Int. J Radiat. Biol., 57:13-21, 1990). Single doses of cytotoxic chemotherapeutic agents greatly reduce the number of medullary cells which reach a nadir at 4 days after administration of the agent. This cell system has been used for the evaluation of misoprostol-induced protection from several chemotherapeutic agents.
CF1 mice had hair from an area of their rump plucked to induce anagen growth as described in Example 2 above. […] In separate groups, mice received misoprostol (40 μg/average 30 g mouse) either subcutaneously or applied topically 2 hours before each of the chemotherapeutic agents listed above. Untreated controls were used since it has been previously determined that water, or 2% EtOH in water, or phosphate buffer at pH=6.8 (the vehicles for the all agents used) had no influence on the cell counts compared to untreated controls. Twenty-five hairs from each animal of each group were dissected from Feulgen stained samples taken from the mice 4 days after treatment.
The number of medullary cells was averaged (n=4) for each treatment group and the results for all chemotherapeutic agents tested to date are presented in Table I.

[4] = test system: white blood cells (WBCs) in the peripheral circulation; experiment: WBC counts and differential counts in peripheral blood of DOX treated mice; type: in vivo
Method: FIG. 7 is a graph illustrating the protective effect of misoprostol (given 2 hours before doxorubicin) on WBC counts compared to the effect of doxorubicin alone on WBC counts as function of time (in days). (The numbers 1 and 2 are duplicate studies.)
Death within 15 days of DOX treatment alone is most likely associated with bone marrow injury. […] DOX, therefore, appears to not only reduce the total WBC, but has a particularly marked effect on lymphocytes.

[5] = test system: mice given graded doses of doxorubicin (DOX); experiment: DOX dose response: dose killing 50% of the mice within 15 days, alone or after PG or WR-2721; type: in vivo; details: 40 μg misoprostol SC 2 hours before graded doses of DOX; death within 15 days; FIG. 5
Method: The open triangle is data of a group of 10 mice given WR-2721, 30 minutes before administration of 0.75 mg of doxorubicin. (The lines are computer fit spline curves through the data; n=24 per data point on each curve).
(The lines are computer fit spline curves through the data; n=8 per data point for each of the PG-treated groups and n=24 for the data points of mice treated only with doxorubicin).
It was observed that all acute deaths due to DOX treatment alone occurred before day 15 following DOX administration. Subsequently, the parameter of death within 15 days was used to investigate the DOX dose response administered IP alone or 2 hours after 40 μg of misoprostol was given subcutaneously (sc). In this study, a dose of about 0.5 mg of DOX/average 30 gram mouse, killed 50% of the DOX treated mice (see FIG. 5).
A comparison of PG-induced protection was made to that of protection by WR-2721; an agent reported to protect from some chemotherapeutic agents. […] Two other PGs representing different structural prostaglandins than misoprostol were also investigated for their effectiveness in protecting mice from mortality resulting from administration of graded doses of DOX.

[6] = test system: mice given 5-fluorouracil; experiment: Survival of mice after 12.5 mg of 5-fluorouracil, with or without prior misoprostol; type: in vivo; details: 40 μg misoprostol 2 hours before 12.5 mg of 5-fluorouracil; FIG. 4
Method: The toxicity of 12.5 mg of 5-fluorouracil alone to mice and the effectiveness of 40 μg of misoprostol given 2 hours prior to administration of 5-fluorouracil to protect from death due to 5-fluorouracil is shown in FIG. 4.

CCCCC(C)(O)C/C=C/[C@H]1[C@H](O)CC(=O)[C@@H]1CCCCCCC(=O)OC (mixture of isomers) [misoprostol, (±)(16RS)-15-deoxy-16-hydroxy-16-methyl prostaglandin E1, methyl ester]
number of hairs, misoprostol + DOX ([1]; 40 μg misoprostol SC 2 hours before each daily 0.1 mg DOX, FIG. 9): 213±7.8 hairs per 4.42 sq. mm
number of hairs, misoprostol + CTX ([1]; 40 μg misoprostol SC 2 hours before each daily 1.0 mg cytoxan, FIG. 10): 222+5.5 hairs per 4.42 sq. mm
percent still alive by day 15, misoprostol before DOX ([2]; 40 μg misoprostol 2 hours before 0.75 mg of DOX, FIG. 3): about 85%
percent survival after 15 days, misoprostol before DOX ([2]; 40 μg misoprostol SC 2 hours before 0.5 mg of doxorubicin, FIG. 2): 100%
Number of Medullar Cells ± 1 SEM, misoprostol subcutaneously ([3]; 40 μg SC 2 hrs before 5 FU (1.0 mg)): 37.4 ± 5.0
Number of Medullar Cells ± 1 SEM, misoprostol subcutaneously ([3]; 40 μg SC 2 hrs before ARA-C (8 mg)): 40.1 ± 0.7
Number of Medullar Cells ± 1 SEM, misoprostol subcutaneously ([3]; 40 μg SC 2 hrs before Bleomycin (0.05 mg)): 27.9 ± 1.2
Number of Medullar Cells ± 1 SEM, misoprostol subcutaneously ([3]; 40 μg SC 2 hrs before CTX (1 mg)): 33.1 ± 1.3
Number of Medullar Cells ± 1 SEM, misoprostol subcutaneously ([3]; 40 μg SC 2 hrs before Carboplatin (1.0 mg)): 31.2 ± 2.4
Number of Medullar Cells ± 1 SEM, misoprostol subcutaneously ([3]; 40 μg SC 2 hrs before Cisplatin (0.25 mg)): 14.3 ± 0.4
Number of Medullar Cells ± 1 SEM, misoprostol subcutaneously ([3]; 40 μg SC 2 hrs before DOX (0.3 mg)): 30.0 ± 1.1
Number of Medullar Cells ± 1 SEM, misoprostol subcutaneously ([3]; 40 μg SC 2 hrs before HU (10 mg)): 38.9 ± 0.7
Number of Medullar Cells ± 1 SEM, misoprostol subcutaneously ([3]; 40 μg SC 2 hrs before Methotrexate (0.2 mg)): 50.6 ± 0.6
Number of Medullar Cells ± 1 SEM, misoprostol subcutaneously ([3]; 40 μg SC 2 hrs before Mitomycin C (0.01 mg)): 38.2 ± 1.9
Number of Medullar Cells ± 1 SEM, misoprostol subcutaneously ([3]; 40 μg SC 2 hrs before Taxol (0.6 mg)): 26.0 ± 3.5
Number of Medullar Cells ± 1 SEM, misoprostol subcutaneously ([3]; 40 μg SC 2 hrs before VP-16-213 (0.3 mg)): 34.4 ± 1.1
Number of Medullar Cells ± 1 SEM, misoprostol topical ([3]; 40 μg topical 2 hrs before ARA-C (8 mg)): 43.1 ± 1.7
Number of Medullar Cells ± 1 SEM, misoprostol topical ([3]; 40 μg topical 2 hrs before Bleomycin (0.05 mg)): 28.1 ± 1.0
Number of Medullar Cells ± 1 SEM, misoprostol topical ([3]; 40 μg topical 2 hrs before CTX (1 mg)): 31.5 ± 2.2
Number of Medullar Cells ± 1 SEM, misoprostol topical ([3]; 40 μg topical 2 hrs before DOX (0.3 mg)): 27.0 ± 1.3
Number of Medullar Cells ± 1 SEM, misoprostol topical ([3]; 40 μg topical 2 hrs before HU (10 mg)): 40.7 ± 1.0
Number of Medullar Cells ± 1 SEM, misoprostol topical ([3]; 40 μg topical 2 hrs before Methotrexate (0.2 mg)): 46.7 ± 2.2
Number of Medullar Cells ± 1 SEM, misoprostol topical ([3]; 40 μg topical 2 hrs before VP-16-213 (0.3 mg)): 33.0 ± 1.6
lack of protection of medullary cells ([3]; ARA-C, bleomycin, HU (misoprostol given systemically), cisplatin, carboplatin or 5-FU treated mice): did not protect medullary cells
percentage of lymphocytes, misoprostol before DOX ([4]; 40 μg of misoprostol 2 hours before 0.5 mg of DOX, differential counts of peripheral blood): greater than 30%
WBC counts, misoprostol before DOX ([4]; misoprostol 40 μg/30 gram mouse 2 hours before DOX (0.5 mg/30 gram mouse), FIG. 7): remained near control levels
DOX dose required to kill 50% of the population of mice, after misoprostol [5]: about 1.0 mg of DOX/average 30 gram mouse
protection of mice from death due to 5-fluorouracil [6]: effective in protecting mice from damaging effects of 5-fluorouracil
